This note sets out measurements from ChEMBL document CHEMBL6127072, “PROTAC unleashed: Unveiling the synthetic approaches and potential therapeutic applications” (Eur J Med Chem, 2024).

Where only a bound is given, the exact number is not on record here.

The target of test [1] is T1, 3-hydroxy-3-methylglutaryl-coenzyme A reductase (Homo sapiens, UniProt P04035).
T1 sequence (P04035 whole entry): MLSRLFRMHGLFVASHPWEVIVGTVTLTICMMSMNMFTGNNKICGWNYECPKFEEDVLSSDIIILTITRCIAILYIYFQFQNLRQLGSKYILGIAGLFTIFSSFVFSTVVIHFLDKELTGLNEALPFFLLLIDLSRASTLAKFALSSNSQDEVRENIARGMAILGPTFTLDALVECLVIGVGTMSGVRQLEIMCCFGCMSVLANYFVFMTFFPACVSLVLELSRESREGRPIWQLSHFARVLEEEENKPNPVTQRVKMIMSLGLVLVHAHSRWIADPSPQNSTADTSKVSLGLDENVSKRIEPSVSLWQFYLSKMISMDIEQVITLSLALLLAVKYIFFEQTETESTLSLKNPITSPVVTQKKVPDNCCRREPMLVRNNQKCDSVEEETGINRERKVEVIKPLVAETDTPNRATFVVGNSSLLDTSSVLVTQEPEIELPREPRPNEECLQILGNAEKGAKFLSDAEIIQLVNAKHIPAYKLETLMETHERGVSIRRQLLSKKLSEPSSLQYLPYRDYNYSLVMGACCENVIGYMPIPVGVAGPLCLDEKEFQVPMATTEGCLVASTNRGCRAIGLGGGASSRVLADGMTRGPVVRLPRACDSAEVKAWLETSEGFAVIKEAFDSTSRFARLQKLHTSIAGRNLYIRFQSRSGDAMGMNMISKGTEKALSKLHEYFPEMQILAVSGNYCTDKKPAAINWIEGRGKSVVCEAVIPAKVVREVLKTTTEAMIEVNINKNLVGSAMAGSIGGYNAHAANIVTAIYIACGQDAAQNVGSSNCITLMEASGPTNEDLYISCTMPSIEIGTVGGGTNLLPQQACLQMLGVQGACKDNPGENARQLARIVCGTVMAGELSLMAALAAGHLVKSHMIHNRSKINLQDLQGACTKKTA
Description: Inhibition of HMG-CoA Reductase (unknown origin).

In test [2] the target is Protein cereblon/Androgen receptor (Homo sapiens, UniProt P10275+Q96SW2). Kind of test: PROTAC activity at AR/CRBN in human A549 cells assessed as induction of androgen receptor degradation measured after 1 hr by Western blot analysis. The format is cell-based.
In test [3] the target is Replicase polyprotein 1ab (Severe acute respiratory syndrome coronavirus 2, UniProt P0DTD1). Description: Inhibition of SARS CoV-2 MPro.
Test [4] addresses Protein cereblon/Leucine-rich repeat serine/threonine-protein kinase 2 (Homo sapiens, UniProt Q5S007+Q96SW2). Description: PROTAC activity at CRBN/LRRK2 in human MOLT-4 cells assessed as induction of protein .degradation incubated for 48 hrs by Western blot analysis. Type of test: cell-based.
Test [5] deals with Protein cereblon/Microtubule-associated protein tau (Homo sapiens, UniProt P10636+Q96SW2). Kind of test: PROTAC activity at CRBN/tau in HEK293T cells measured for 48 hrs by immunoblot analysis. Type of test: cell-based.
Test [6] deals with T2, Protein cereblon/Bromodomain-containing protein 4 (Homo sapiens, UniProt O60885+Q96SW2). Description: PROTAC activity at CRBN/BRD4 in human MV4-11 cells assessed as induction of degradation of BRD4 measured after 24 hrs by Western blot analysis. The format is cell-based.
Test [7] addresses T2, Protein cereblon/Bromodomain-containing protein 4. Kind of test: PROTAC activity at CRBN/BRD4 in human MV4-11 cells assessed as maximal degradation at 1 uM incubated for 30 mins by Western blot analysis relative to control. Type of test: cell-based.
Test [8] has the same target. Kind of test: PROTAC activity at CRBN/BRD4 in human MV4-11 cells assessed as induction of degradation of BRD4. Type of test: cell-based.
For test [9], the target named is T3, 3-hydroxy-3-methylglutaryl-coenzyme A reductase (Homo sapiens) (UniProt P04035).
T3 sequence (whole entry): T1 sequence (P04035 whole entry)
Description: Inhibition of HMG-CoA reductase (unknown origin) at 10 uM relative to control.

For a further test, the target named is NS3 protease (Hepacivirus C, UniProt C1KIQ2). Description: Inhibition of Hepatitis C virus NS3 protease. Also on record: species or system Hepacivirus hominis.
Sequence of NS3 protease (C1KIQ2 whole entry): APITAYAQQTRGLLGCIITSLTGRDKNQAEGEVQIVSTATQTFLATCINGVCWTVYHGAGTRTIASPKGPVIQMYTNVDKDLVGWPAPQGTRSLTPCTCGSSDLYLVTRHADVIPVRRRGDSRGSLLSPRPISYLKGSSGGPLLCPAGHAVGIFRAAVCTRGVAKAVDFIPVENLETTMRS

T2 sequence (Q96SW2 whole entry, looked up, other chains not shown): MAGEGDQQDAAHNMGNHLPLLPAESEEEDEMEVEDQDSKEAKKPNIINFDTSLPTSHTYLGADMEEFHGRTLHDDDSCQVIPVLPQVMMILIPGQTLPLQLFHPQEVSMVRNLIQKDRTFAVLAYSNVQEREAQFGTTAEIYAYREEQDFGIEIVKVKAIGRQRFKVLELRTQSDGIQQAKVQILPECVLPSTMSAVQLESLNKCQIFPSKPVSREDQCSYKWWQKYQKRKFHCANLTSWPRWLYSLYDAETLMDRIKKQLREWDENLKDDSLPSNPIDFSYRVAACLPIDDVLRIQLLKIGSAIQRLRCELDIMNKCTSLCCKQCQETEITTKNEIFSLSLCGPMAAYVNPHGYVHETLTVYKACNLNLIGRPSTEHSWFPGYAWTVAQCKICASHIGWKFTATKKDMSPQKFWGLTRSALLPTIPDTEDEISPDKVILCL
Sequence of Protein cereblon/Androgen receptor (P10275 whole entry): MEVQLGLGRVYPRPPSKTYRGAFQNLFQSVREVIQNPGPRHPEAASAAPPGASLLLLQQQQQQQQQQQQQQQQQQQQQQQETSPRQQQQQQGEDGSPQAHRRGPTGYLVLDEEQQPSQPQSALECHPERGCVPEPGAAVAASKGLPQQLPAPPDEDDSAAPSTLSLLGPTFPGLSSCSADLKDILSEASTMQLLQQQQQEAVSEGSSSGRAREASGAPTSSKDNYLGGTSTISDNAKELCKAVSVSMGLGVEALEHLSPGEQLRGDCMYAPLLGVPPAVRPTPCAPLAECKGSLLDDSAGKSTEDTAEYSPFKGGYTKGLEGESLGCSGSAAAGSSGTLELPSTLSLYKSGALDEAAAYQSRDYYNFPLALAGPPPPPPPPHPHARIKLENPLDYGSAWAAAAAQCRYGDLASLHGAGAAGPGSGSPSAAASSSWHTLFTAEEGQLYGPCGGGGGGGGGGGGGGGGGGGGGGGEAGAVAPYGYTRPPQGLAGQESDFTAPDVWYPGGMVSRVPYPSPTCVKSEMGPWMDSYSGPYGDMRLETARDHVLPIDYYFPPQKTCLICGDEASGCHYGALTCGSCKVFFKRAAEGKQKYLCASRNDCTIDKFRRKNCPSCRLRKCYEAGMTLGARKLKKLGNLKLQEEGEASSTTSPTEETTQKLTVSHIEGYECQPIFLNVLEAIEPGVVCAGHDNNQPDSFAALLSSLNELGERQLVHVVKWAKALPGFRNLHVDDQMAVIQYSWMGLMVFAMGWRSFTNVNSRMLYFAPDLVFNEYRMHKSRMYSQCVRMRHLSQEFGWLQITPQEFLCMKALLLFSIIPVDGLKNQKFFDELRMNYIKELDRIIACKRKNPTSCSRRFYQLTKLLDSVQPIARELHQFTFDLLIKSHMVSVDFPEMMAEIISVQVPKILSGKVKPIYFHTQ
Sequence of Protein cereblon/Androgen receptor (Q96SW2 whole entry): as the sequence (Q96SW2 whole entry, looked up, other chains not shown) above
Sequence of Protein cereblon/Leucine-rich repeat serine/threonine-protein kinase 2 (Q5S007 whole entry): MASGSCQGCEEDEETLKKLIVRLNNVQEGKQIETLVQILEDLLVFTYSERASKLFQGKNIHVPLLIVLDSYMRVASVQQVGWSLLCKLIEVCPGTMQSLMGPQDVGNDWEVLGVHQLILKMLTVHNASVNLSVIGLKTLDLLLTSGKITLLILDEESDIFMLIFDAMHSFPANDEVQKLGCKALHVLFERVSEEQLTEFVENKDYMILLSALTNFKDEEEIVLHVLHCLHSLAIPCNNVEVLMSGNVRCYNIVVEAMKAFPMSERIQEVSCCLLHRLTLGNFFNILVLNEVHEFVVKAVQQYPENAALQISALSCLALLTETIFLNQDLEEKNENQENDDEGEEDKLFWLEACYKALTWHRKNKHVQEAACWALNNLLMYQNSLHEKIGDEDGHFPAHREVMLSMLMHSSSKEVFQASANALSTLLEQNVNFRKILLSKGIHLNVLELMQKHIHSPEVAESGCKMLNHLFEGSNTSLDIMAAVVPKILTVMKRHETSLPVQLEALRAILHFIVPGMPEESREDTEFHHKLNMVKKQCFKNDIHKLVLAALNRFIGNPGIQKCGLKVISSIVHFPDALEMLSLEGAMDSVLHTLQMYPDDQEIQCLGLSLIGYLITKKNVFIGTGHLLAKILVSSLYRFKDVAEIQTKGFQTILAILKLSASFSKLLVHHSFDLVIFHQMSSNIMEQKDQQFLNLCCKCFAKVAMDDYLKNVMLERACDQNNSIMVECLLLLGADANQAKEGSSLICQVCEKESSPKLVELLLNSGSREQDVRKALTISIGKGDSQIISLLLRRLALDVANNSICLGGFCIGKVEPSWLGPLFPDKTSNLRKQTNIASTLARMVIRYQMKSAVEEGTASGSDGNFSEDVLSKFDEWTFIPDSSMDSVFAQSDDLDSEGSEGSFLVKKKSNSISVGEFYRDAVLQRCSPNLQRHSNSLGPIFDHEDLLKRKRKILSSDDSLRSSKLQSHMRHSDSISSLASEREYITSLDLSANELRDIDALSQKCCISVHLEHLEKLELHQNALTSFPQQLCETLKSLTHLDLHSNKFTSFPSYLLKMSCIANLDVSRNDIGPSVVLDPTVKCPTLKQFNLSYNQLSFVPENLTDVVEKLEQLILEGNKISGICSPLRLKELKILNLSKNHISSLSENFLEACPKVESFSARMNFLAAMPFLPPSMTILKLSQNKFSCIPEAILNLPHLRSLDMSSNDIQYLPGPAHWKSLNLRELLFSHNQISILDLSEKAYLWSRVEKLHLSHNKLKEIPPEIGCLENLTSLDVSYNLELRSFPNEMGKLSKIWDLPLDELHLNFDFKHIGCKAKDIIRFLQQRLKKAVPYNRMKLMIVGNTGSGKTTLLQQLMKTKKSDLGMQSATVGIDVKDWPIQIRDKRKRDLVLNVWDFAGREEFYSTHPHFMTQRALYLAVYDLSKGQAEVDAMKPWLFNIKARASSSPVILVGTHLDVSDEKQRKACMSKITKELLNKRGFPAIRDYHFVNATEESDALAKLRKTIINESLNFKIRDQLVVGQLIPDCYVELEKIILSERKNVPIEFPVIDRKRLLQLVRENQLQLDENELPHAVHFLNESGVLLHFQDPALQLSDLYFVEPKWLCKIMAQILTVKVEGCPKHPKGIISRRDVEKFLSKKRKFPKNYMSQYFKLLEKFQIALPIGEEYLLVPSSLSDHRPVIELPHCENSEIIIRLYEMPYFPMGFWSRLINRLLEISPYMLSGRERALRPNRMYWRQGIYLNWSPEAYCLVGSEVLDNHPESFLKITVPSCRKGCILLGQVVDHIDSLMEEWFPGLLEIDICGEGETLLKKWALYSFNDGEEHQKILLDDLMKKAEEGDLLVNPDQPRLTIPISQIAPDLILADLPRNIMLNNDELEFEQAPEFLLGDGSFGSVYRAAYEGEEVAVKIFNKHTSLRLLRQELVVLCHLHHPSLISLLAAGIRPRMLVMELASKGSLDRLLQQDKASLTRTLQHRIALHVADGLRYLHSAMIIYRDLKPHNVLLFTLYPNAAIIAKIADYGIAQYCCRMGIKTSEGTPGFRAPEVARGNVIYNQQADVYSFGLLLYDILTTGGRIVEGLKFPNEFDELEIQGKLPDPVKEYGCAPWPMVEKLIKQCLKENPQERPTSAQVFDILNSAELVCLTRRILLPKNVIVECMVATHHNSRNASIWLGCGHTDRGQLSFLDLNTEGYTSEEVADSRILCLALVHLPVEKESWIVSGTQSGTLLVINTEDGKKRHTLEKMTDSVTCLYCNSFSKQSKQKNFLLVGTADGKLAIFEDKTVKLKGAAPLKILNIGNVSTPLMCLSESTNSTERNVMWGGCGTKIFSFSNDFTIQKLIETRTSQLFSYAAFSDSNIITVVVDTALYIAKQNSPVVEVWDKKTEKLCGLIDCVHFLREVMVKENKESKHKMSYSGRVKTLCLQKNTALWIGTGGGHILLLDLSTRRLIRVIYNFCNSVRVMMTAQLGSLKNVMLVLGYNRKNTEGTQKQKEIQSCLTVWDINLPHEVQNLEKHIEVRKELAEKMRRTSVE
Sequence of Protein cereblon/Leucine-rich repeat serine/threonine-protein kinase 2 (Q96SW2 whole entry): as the sequence (Q96SW2 whole entry, looked up, other chains not shown) above
Sequence of Protein cereblon/Microtubule-associated protein tau (P10636 whole entry): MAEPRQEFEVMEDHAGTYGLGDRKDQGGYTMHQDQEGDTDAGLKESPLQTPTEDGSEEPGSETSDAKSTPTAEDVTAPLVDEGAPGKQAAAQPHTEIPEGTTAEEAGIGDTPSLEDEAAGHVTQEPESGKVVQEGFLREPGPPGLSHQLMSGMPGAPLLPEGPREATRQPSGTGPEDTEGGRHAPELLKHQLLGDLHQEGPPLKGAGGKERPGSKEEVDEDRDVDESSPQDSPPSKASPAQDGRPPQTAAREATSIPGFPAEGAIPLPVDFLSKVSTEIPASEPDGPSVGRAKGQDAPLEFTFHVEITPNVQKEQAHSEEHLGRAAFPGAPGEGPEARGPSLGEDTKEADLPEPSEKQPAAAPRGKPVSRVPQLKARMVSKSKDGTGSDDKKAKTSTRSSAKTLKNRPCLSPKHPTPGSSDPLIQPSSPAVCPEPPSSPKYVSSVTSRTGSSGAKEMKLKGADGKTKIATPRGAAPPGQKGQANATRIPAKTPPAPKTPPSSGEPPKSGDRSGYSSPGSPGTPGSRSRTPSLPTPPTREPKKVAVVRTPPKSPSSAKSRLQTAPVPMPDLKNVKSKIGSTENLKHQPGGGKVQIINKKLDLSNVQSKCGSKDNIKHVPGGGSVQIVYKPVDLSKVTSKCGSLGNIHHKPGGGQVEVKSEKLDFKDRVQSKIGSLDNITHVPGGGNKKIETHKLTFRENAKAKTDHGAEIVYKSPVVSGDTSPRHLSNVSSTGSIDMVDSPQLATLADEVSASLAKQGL
Sequence of Protein cereblon/Microtubule-associated protein tau (Q96SW2 whole entry): as the sequence (Q96SW2 whole entry, looked up, other chains not shown) above

`Cc1ncsc1-c1ccc(CNC(=O)[C@@H]2C[C@@H](O)CN2C(=O)[C@@H](NC(=O)CCCCCCCCCCNC(=O)O[C@@H]2C[C@H](C)C=C3C=C[C@@H](C)[C@@H](CC[C@@H](O)C[C@@H](C)CC(=O)O)[C@@H]32)C(C)(C)C)cc1`: in [1], half-maximal inhibition (IC50) was put at 120 nM.
Turning to `CC1(C)C(=O)N(c2ccc(C#N)c(C(F)(F)F)c2)C(=O)N1c1ccc(-c2ccc(O[C@@H]3CCN(C(=O)C4CCN(c5ccc6c(c5)C(=O)N(C5CCC(=O)NC5=O)C6=O)CC4)C3)cc2)cc1` (stereo partly specified), in test [2], the DC50 was determined as 75 nM.
`C[C@@H](OC(C)(C)C)[C@H](NC(=O)OCc1cccc(OCCCCCOc2cccc3c2C(=O)N(C2CCC(=O)NC2=O)C3=O)c1)C(=O)N[C@H](CN[C@H](C=O)C[C@@H]1CCNC1=O)CC1CCCCC1` (stereo partly specified) came in with an EC50 in test [3] of 290 nM.
`Cc1ncsc1-c1ccc(CNC(=O)[C@@H]2C[C@@H](O)CN2C(=O)[C@@H](NC(=O)CCOCCOCCOCCNC(=O)[C@]23CCC(C)(C)C[C@H]2[C@H]2CC[C@@H]4[C@@]5(C)CC[C@H](O)C(C)(C)[C@@H]5CC[C@@]4(C)[C@]2(C)CC3)C(C)(C)C)cc1` had a concentration for half-maximal inhibition (IC50) in [3] of 1140 nM.
Consider `CC(C)C[C@H](CCOCCOCCOCCNc1ccc(-c2cc(-c3cccc(Br)c3)[nH]n2)cc1)NC(=O)[C@H](O)[C@@H](N)Cc1ccccc1`, for which the DC50 in test [4] came out at 5040 nM.
`O=C(CCc1ccc2[nH]c3ccncc3c2c1)NCCOCCCOCCNc1cccc2c1C(=O)N(C1CCC(=O)NC1=O)C2=O` (stereo unspecified) came in with a DC50 in test [5] of 75 nM.
Take `Cc1sc2c(c1C)C(c1ccc(Cl)cc1)=N[C@@H](CC(=O)NCCCCCNCCOc1ccc(C3CC(=O)NC(=O)C3)cc1)c1nnc(C)n1-2`: the DC50 in test [6] is below 1 nM. The maximal response (Emax) in [7] stood at 99%.
Turning to `Cc1cc(-c2cc(NC(=O)CCC(=O)NCCOCCOCCNc3ccc4c(c3)C(=O)N(C3CCC(=O)NC3=O)C4=O)ccc2Oc2ccccc2)n2cc[nH]c(=O)c12` (stereo unspecified), the DC50 in [8] came to 0.75 nM.
`Cc1ncsc1-c1ccc(CNC(=O)[C@@H]2C[C@@H](O)CN2C(=O)[C@@H](NC(=O)CCCCCCCCCCNC(=O)O[C@@H]2C[C@H](C)C=C3C=C[C@@H](C)[C@@H](CC[C@@H]4C[C@@H](O)CC(=O)O4)[C@@H]32)C(C)(C)C)cc1` yielded an inhibition in test [9] of 56%.
For the compound `CCC[C@H](NC(=O)[C@H]1N(C(=O)[C@@H](NC(=O)[C@@H](NC(=O)c2cnc(CC(=O)NCCOCCOCCOc3cc4c5c(cccc5c3)C(=O)N(C3CCC(=O)NC3=O)C4=O)cn2)C2CCCCC2)C(C)(C)C)C[C@]2(C)CCC[C@]12C)C(=O)C(=O)NC1CC1` (stereo partly specified), at NS3 protease, a half-maximal effect (EC50) was put at 50 nM.
